Measurements reported in US20260159512A1, “BCAT2 INHIBITORS” (AGIOS PHARMACEUTICALS, INC., priority 2021, published 2026).

What follows are compounds tested against T1, BCAT2 (Homo sapiens, UniProt O15382) (assay: BCAT2 in vitro enzyme inhibition assay (resazurin/diaphorase-coupled fluorescence)). Details: average where tested multiple times.
T1 sequence (O15382 28-392): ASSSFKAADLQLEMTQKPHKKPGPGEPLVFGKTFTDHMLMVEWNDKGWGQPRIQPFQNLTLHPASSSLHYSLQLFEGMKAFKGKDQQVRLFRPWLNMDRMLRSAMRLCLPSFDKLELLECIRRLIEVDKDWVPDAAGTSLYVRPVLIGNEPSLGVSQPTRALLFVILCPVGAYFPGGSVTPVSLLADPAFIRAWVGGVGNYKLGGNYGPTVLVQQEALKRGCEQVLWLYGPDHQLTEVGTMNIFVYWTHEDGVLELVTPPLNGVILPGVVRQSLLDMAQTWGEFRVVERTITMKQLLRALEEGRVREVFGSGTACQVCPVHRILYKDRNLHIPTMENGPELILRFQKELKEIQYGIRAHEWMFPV
Assay type: biochemical
Protocol: BCAT2 In Vitro Enzyme Inhibition Assay
1.67× hBCAT2 Enzyme Mix: 0.33 μg/mL hBCAT2, 1× Buffer
2.5× Substrate Mix: 460 μM L-leucine, 420 μM α-KetoGlutarate, 10 U/mL glutamate dehydrogenase, 10 mM NAD, 30 μg/mL diaphorase, 20 μm Resazurin
BCAT2 enzyme stock solution was diluted to prepare a 1.67× hBCAT2 Enzyme Mix. 1 μL of test compound was first added to the reaction wells followed by 30 μL of 1.67× hBCAT2 Enzyme Mix and incubated at room temperature (25° C.) for one hour. Meanwhile the Substrate Mix was prepared. The reaction was initiated by the addition of 20 μL of the 2.5× Substrate Mix, bringing the final reaction mix of all components to 1×. Reactions were quenched after one hour by the addition of 25 μL of 6% SDS and reaction progress was measured via fluorescence read (Ex 540/Em 590).
Test Compound Preparation:
Test compounds were prepared at 50× final concentration in DMSO, 1 to 3 dilutions were made for 10 points. The compounds were added to the assay as a 1 to 50 dilution (1 μL in 50 μL) to yield a top assay final concentration of 100 μM, decreasing 3-fold for 10 points. Each compound dilution series test also included an assay max (1 μL DMSO Added in lieu of compound, Full Reaction Components Included) and Min (1 μL DMSO Added in lieu of compound, 30 μl of 1.67× hBCAT2 Enzyme Mix replated by 30 μL of 1× Buffer). All tests were performed in technical duplicate.
Where a compound was tested multiple times, the average value of the tests is reported.

Structure (SMILES) | IC50
COC[C@@H]1CCCN1c1cc2c(cn1)nc(-c1ccccc1F)n2[C@@H]1CCC[C@H](NC(=O)c2ncc(Cl)s2)C1 [Example 197, 5-chloro-N-((1S,3R)-3-(2-(2-fluorophenyl)-6-((S)-2-(methoxymethyl)pyrrolidin-1-yl)-1H-imidazo[4,5-c]pyridin-1-yl)cyclohexyl)thiazole-2-carboxamide] | > 1000 nM
CC(C)Cc1nc2cnc(-n3cc(F)cn3)cc2n1[C@H]1C[C@H](O)C[C@@H](NC(=O)c2ncc(Cl)s2)C1 [Example 222, 5-chloro-N-((1S,3R,5R)-3-(6-(4-fluoro-1H-pyrazol-1-yl)-2-isobutyl-1H-imidazo[4,5-c]pyridin-1-yl)-5-hydroxycyclohexyl)thiazole-2-carboxamide] | > 1000 nM
CC(C)Cc1nc2cnc(-c3ccn(C)n3)cc2n1[C@H]1CCC[C@@H](NC(=O)c2ncc(Cl)s2)[C@@H]1O [Example 224, 5-chloro-N-((1R,2S,3S)-2-hydroxy-3-(2-isobutyl-6-(1-methyl-1H-pyrazol-3-yl)-1H-imidazo[4,5-c]pyridin-1-yl)cyclohexyl)thiazole-2-carboxamide] | > 1000 nM
CC(C)Cc1nc2cnc(-c3ccn[nH]3)cc2n1[C@H]1CCC[C@@H](NC(=O)c2ncc(Cl)s2)[C@@H]1O [Example 226, 5-chloro-N-((1R,2S,3S)-2-hydroxy-3-(2-isobutyl-6-(1H-pyrazol-5-yl)-1H-imidazo[4,5-c]pyridin-1-yl)cyclohexyl)thiazole-2-carboxamide] | > 1000 nM
CC(C)Cc1nc2cnc(-n3nccn3)cc2n1[C@H]1CCC[C@@H](NC(=O)c2ncc(Cl)s2)[C@@H]1O [Example 228, 5-chloro-N-((1R,2S,3S)-2-hydroxy-3-(2-isobutyl-6-(2H-1,2,3-triazol-2-yl)-1H-imidazo[4,5-c]pyridin-1-yl)cyclohexyl)thiazole-2-carboxamide] | > 1000 nM
CC(=O)N1CC(NC(=O)c2ccc(Br)s2)CC(n2c(-c3ccccn3)nc3ccc(-c4nnco4)cc32)C1 (centres unmarked) [Example 285, N-(5-(6-(1,3,4-oxadiazol-2-yl)-2-(pyridin-2-yl)-1H-benzo[d]imidazol-1-yl)-1-acetylpiperidin-3-yl)-5-bromothiophene-2-carboxamide] | ≤ 100 nM
O=C(N[C@H]1CCC[C@@H](n2c(-c3ccccc3F)nc3cnc(-n4ccccc4=O)cc32)C1)c1ncc(Cl)s1 [Example 357, 5-chloro-N-((1S,3R)-3-(2-(2-fluorophenyl)-6-(2-oxopyridin-1(2H)-yl)-1H-imidazo[4,5-c]pyridin-1-yl)cyclohexyl)thiazole-2-carboxamide] | 500 to 1000 nM
CC(O)Cc1nc2cnc(-c3ccccn3)cc2n1[C@@H]1CCC[C@H](NC(=O)c2ncc(Cl)s2)C1 (stereo partly drawn) [Example 360, 5-chloro-N-((1S,3R)-3-(2-(2-hydroxypropyl)-6-(pyridin-2-yl)-1H-imidazo[4,5-c]pyridin-1-yl)cyclohexyl)thiazole-2-carboxamide] | > 1000 nM
CC(C)Cc1nc2cnc(-c3ncc[nH]3)cc2n1[C@@H]1CCC[C@H](NC(=O)c2ncc(Cl)s2)C1 [Example 361, N-((1S,3R)-3-(6-(1H-imidazol-2-yl)-2-isobutyl-1H-imidazo[4,5-c]pyridin-1-yl)cyclohexyl)-5-chlorothiazole-2-carboxamide] | ≤ 100 nM
CC(=O)Cc1nc2cnc(-c3ccccn3)cc2n1[C@@H]1CCC[C@H](NC(=O)c2ncc(Cl)s2)C1 [Example 362, 5-chloro-N-((1S,3R)-3-(2-(2-oxopropyl)-6-(pyridin-2-yl)-1H-imidazo[4,5-c]pyridin-1-yl)cyclohexyl)thiazole-2-carboxamide] | > 1000 nM
CC(=O)N[C@H](c1nc2cnc(-c3nc[nH]n3)cc2n1[C@@H]1CCC[C@H](NC(=O)c2ncc(Cl)s2)C1)C(C)C [Example 368, N-((1S,3R)-3-(2-((S)-1-acetamido-2-methylpropyl)-6-(1H-1,2,4-triazol-3-yl)-1H-imidazo[4,5-c]pyridin-1-yl)cyclohexyl)-5-chlorothiazole-2-carboxamide] | > 1000 nM
CN(C)Cc1ccccc1-c1nc2cnc(-c3nc[nH]n3)cc2n1[C@@H]1CCC[C@H](NC(=O)c2ncc(Cl)s2)C1 [Example 375, 5-chloro-N-((1S,3R)-3-(2-(2-((dimethylamino)methyl)phenyl)-6-(1H-1,2,4-triazol-3-yl)-1H-imidazo[4,5-c]pyridin-1-yl)cyclohexyl)thiazole-2-carboxamide] | 500 to 1000 nM
O=C(N[C@H]1CCC[C@@H](n2c(-c3ccccc3OCCO)nc3cnc(-c4nc[nH]n4)cc32)C1)c1ncc(Cl)s1 [Example 382, 5-chloro-N-((1S,3R)-3-(2-(2-(2-hydroxyethoxy)phenyl)-6-(1H-1,2,4-triazol-3-yl)-1H-imidazo[4,5-c]pyridin-1-yl)cyclohexyl)thiazole-2-carboxamide] | ≤ 100 nM
CC(C)Cc1nc2cnc(-c3nc[nH]n3)cc2n1[C@@H]1CCC[C@H](NC(=O)c2ncc(Cl)s2)[C@@H]1O [Example 408, 5-chloro-N-((1S,2S,3R)-2-hydroxy-3-(2-isobutyl-6-(1H-1,2,4-triazol-3-yl)-1H-imidazo[4,5-c]pyridin-1-yl)cyclohexyl)thiazole-2-carboxamide] | ≤ 100 nM
CO[C@@H]1C[C@@H](NC(=O)c2ncc(Cl)s2)C[C@@H](n2c(CC(C)C)nc3cnc(-c4nc(C)co4)cc32)C1 [Example 410, 5-chloro-N-((1S,3R,5R)-3-(2-isobutyl-6-(4-methyloxazol-2-yl)-1H-imidazo[4,5-c]pyridin-1-yl)-5-methoxycyclohexyl)thiazole-2-carboxamide] | > 1000 nM
COC(=O)O[C@@H]1[C@@H](NC(=O)c2ncc(Cl)s2)CCC[C@H]1n1c(-c2ccccc2F)nc2cnc(-c3nc[nH]n3)cc21 [Example 447, (1R,2S,6R)-2-(5-chlorothiazole-2-carboxamido)-6-(2-(2-fluorophenyl)-6-(1H-1,2,4-triazol-3-yl)-1H-imidazo[4,5-c]pyridin-1-yl)cyclohexyl methyl carbonate] | 100 to 500 nM
CS(=O)(=O)O[C@@H]1[C@@H](NC(=O)c2ncc(Cl)s2)CCC[C@H]1n1c(-c2ccccc2F)nc2cnc(-c3nc[nH]n3)cc21 [Example 448, (1R,2S,6R)-2-(5-chlorothiazole-2-carboxamido)-6-(2-(2-fluorophenyl)-6-(1H-1,2,4-triazol-3-yl)-1H-imidazo[4,5-c]pyridin-1-yl)cyclohexyl methanesulfonate] | 500 to 1000 nM
[N-]=[N+]=N[C@@H]1[C@@H](NC(=O)c2ncc(Cl)s2)CCC[C@H]1n1c(-c2ccccc2F)nc2cnc(-c3nc[nH]n3)cc21 [Example 449, N-((1S,2R,3R)-2-azido-3-(2-(2-fluorophenyl)-6-(1H-1,2,4-triazol-3-yl)-1H-imidazo[4,5-c]pyridin-1-yl)cyclohexyl)-5-chlorothiazole-2-carboxamide] | ≤ 100 nM
[N-]=[N+]=N[C@H]1[C@@H](NC(=O)c2ncc(Cl)s2)CCC[C@H]1n1c(-c2ccccc2F)nc2cnc(-c3nc[nH]n3)cc21 [Example 450, N-((1S,2S,3R)-2-azido-3-(2-(2-fluorophenyl)-6-(1H-1,2,4-triazol-3-yl)-1H-imidazo[4,5-c]pyridin-1-yl)cyclohexyl)-5-chlorothiazole-2-carboxamide] | > 1000 nM
N#C[C@H]1[C@@H](NC(=O)c2ncc(Cl)s2)CCC[C@H]1n1c(-c2ccccc2F)nc2cnc(-c3nc[nH]n3)cc21 [Example 452, 5-chloro-N-((1S,2S,3R)-2-cyano-3-(2-(2-fluorophenyl)-6-(1H-1,2,4-triazol-3-yl)-1H-imidazo[4,5-c]pyridin-1-yl)cyclohexyl)thiazole-2-carboxamide] | > 1000 nM
